Laboratory results taken from ChEMBL document CHEMBL5260810, “Inhibition of bromodomain-containing protein 9 for the prevention of epigenetically-defined drug resistance” (Bioorg Med Chem Lett, 2017).

Tests used:
NCI-H2452 = test: Cytotoxicity against human NCI-H2452 cells measured after 8 days; format: functional, cell-based; settings: NCI-H2452, 192 h
SK-BR-3 = test: Cytotoxicity against human SK-BR-3 cells measured after 8 days; format: functional, cell-based; settings: SK-BR-3, 192 h
Rattus norvegicus [1] = species: Rattus norvegicus; test: Displacement of [125I]alpha-dendrotoxin from rat brain voltage-gated K channel at 10 uM after 60 mins by scintillation counting analysis relative to control
SU-DHL-16 = test: Cytotoxicity against human SU-DHL-16 cells measured after 8 days; format: functional, cell-based; settings: SU-DHL-16, 192 h
EB-3 = test: Cytotoxicity against human EB-3 cells measured after 8 days; format: functional, cell-based; settings: EB-3, 192 h
Rattus norvegicus [2] = species: Rattus norvegicus; test: Displacement of [3H]flunitrazepam from rat brain central BZD at 10 uM after 60 mins by radioligand binding assay relative to control
KNS-62 = test: Cytotoxicity against human KNS-62 cells measured after 8 days; format: functional, cell-based; settings: KNS-62, 192 h
HCC1937 = test: Cytotoxicity against human HCC1937 cells measured after 8 days; format: functional, cell-based; settings: HCC1937, 192 h
[3] = Cytotoxicity against human NCI-H2810 cells measured after 8 days; format: functional, cell-based; settings: NCI-H2810, 192 h
GA-10 = test: Cytotoxicity against human GA-10 cells measured after 8 days; format: functional, cell-based; settings: GA-10, 192 h
[4] = target: D(2) dopamine receptor (Homo sapiens) (UniProt P14416); test: Displacement of [3H]7-OH-DPAT from human recombinant dopamine D2S receptor at 10 uM after 60 mins by scintillation counting analysis relative to control
[5] = Cytotoxicity against human KMS-21BM cells measured after 8 days; format: functional, cell-based; settings: 192 h
[6] = target: Beta-2 adrenergic receptor (Homo sapiens) (UniProt P07550); test: Displacement of [3H](-)CGP 12177 from human recombinant beta2 adrenoceptor at 10 uM after 120 mins by scintillation counting analysis relative to control
HCC38 = test: Cytotoxicity against human HCC38 cells measured after 8 days; format: functional, cell-based; settings: HCC38, 192 h
JIMT-1 = test: Cytotoxicity against human JIMT-1 cells measured after 8 days; format: functional, cell-based; settings: JIMT-1, 192 h
[7] = target: Glycogen synthase kinase-3 beta (Homo sapiens) (UniProt P49841); test: Inhibition of GSK3beta (unknown origin) at 1 uM relative to control
Raji = test: Cytotoxicity against human Raji cells measured after 8 days; format: functional, cell-based; settings: 192 h
[8] = target: Misshapen-like kinase 1 (Homo sapiens) (UniProt Q8N4C8); test: Inhibition of Mink1 (unknown origin) at 1 uM relative to control
CREB-binding protein = CREB-binding protein (Homo sapiens, UniProt Q92793); test: Binding affinity to human partial length CREBBP (R1081 to G1197 residues) expressed in bacterial expression system by BROMOscan assay
SW48 = test: Cytotoxicity against human SW48 cells measured after 8 days; format: functional, cell-based; settings: SW48, 192 h
[9] = target: T1, Bromodomain-containing protein 7 (Homo sapiens, UniProt Q9NPI1); test: Binding affinity to human partial length BRD7 (L125 to R254 residues) expressed in mammalian expression system by BROMOscan assay
T1 sequence (Q9NPI1 whole entry): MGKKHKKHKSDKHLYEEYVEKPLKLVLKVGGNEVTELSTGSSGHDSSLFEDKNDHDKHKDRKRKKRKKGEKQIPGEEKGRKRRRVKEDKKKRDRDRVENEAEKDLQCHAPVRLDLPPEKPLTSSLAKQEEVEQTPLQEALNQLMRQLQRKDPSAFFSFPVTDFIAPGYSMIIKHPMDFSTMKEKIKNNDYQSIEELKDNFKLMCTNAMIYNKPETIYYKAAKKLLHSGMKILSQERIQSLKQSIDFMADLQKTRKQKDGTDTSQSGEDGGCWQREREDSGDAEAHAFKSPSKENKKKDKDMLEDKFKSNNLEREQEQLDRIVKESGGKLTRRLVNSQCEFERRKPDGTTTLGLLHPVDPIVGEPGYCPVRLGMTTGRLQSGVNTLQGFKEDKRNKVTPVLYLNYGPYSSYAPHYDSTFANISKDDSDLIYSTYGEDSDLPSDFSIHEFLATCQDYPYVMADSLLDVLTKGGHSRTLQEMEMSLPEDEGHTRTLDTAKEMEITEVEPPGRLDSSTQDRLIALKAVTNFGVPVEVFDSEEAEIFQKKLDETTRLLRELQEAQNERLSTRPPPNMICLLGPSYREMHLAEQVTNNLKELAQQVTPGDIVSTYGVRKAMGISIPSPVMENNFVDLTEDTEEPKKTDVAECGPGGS

SCC-3 = test: Cytotoxicity against human SCC-3 cells measured after 8 days; format: functional, cell-based; settings: SCC-3, 192 h
COLO 320 = test: Cytotoxicity against human COLO 320 cells measured after 8 days; format: functional, cell-based; settings: COLO 320, 192 h
[10] = target: Bromodomain-containing protein 8 (Homo sapiens, UniProt Q9H0E9); test: Binding affinity to BRD8 bromodomain 1 (unknown origin) by BROMOscan assay
[11] = Cytotoxicity against human KMS-28PE cells measured after 8 days; format: functional, cell-based; settings: 192 h
[12] = Cytotoxicity against human OV7 cells measured after 8 days; format: functional, cell-based; settings: OV7, 192 h
NCI-H441 = test: Cytotoxicity against human NCI-H441 cells measured after 8 days; format: functional, cell-based; settings: NCI-H441, 192 h
DAN-G = test: Cytotoxicity against human DAN-G cells measured after 8 days; format: functional, cell-based; settings: 192 h
MC116 = test: Cytotoxicity against human MC116 cells measured after 8 days; format: functional, cell-based; settings: MC116, 192 h
[13] = target: Bromodomain-containing protein 2 (Homo sapiens, UniProt P25440); test: Binding affinity to human partial length BRD2 bromodomain 1 long isoform (K71 to N194 residues) expressed in bacterial expression system by BROMOscan assay
Homo sapiens = species: Homo sapiens; test: Displacement of [3H] Dofetilide from human potassium channel at 10 uM relative to control

Chain of Glycogen synthase kinase-3 beta (Homo sapiens) (P49841 whole entry, looked up): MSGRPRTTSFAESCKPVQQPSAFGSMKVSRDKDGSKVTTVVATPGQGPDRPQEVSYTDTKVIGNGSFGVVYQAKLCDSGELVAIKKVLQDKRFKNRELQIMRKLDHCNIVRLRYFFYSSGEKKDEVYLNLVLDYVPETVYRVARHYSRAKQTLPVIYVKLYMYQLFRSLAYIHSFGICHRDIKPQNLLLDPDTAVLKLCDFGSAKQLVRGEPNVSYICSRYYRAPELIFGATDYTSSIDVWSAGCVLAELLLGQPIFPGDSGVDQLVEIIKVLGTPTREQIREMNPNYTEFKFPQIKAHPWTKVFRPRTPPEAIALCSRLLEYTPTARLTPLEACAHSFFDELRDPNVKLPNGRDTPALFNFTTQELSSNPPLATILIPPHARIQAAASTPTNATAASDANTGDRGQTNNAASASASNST
Chain of Beta-2 adrenergic receptor (Homo sapiens) (P07550 whole entry, looked up): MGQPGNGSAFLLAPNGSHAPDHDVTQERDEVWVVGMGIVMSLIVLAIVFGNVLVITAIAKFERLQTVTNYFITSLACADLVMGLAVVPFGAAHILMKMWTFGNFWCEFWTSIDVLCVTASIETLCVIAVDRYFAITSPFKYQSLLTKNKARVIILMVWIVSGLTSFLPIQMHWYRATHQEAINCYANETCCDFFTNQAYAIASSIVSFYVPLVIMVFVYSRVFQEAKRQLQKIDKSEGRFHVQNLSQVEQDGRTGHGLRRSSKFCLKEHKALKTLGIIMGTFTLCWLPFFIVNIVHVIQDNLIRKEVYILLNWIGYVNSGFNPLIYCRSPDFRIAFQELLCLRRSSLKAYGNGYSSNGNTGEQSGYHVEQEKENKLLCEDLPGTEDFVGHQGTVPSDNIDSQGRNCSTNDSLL
Chain of CREB-binding protein (Q92793 whole entry, the tested form may be a part): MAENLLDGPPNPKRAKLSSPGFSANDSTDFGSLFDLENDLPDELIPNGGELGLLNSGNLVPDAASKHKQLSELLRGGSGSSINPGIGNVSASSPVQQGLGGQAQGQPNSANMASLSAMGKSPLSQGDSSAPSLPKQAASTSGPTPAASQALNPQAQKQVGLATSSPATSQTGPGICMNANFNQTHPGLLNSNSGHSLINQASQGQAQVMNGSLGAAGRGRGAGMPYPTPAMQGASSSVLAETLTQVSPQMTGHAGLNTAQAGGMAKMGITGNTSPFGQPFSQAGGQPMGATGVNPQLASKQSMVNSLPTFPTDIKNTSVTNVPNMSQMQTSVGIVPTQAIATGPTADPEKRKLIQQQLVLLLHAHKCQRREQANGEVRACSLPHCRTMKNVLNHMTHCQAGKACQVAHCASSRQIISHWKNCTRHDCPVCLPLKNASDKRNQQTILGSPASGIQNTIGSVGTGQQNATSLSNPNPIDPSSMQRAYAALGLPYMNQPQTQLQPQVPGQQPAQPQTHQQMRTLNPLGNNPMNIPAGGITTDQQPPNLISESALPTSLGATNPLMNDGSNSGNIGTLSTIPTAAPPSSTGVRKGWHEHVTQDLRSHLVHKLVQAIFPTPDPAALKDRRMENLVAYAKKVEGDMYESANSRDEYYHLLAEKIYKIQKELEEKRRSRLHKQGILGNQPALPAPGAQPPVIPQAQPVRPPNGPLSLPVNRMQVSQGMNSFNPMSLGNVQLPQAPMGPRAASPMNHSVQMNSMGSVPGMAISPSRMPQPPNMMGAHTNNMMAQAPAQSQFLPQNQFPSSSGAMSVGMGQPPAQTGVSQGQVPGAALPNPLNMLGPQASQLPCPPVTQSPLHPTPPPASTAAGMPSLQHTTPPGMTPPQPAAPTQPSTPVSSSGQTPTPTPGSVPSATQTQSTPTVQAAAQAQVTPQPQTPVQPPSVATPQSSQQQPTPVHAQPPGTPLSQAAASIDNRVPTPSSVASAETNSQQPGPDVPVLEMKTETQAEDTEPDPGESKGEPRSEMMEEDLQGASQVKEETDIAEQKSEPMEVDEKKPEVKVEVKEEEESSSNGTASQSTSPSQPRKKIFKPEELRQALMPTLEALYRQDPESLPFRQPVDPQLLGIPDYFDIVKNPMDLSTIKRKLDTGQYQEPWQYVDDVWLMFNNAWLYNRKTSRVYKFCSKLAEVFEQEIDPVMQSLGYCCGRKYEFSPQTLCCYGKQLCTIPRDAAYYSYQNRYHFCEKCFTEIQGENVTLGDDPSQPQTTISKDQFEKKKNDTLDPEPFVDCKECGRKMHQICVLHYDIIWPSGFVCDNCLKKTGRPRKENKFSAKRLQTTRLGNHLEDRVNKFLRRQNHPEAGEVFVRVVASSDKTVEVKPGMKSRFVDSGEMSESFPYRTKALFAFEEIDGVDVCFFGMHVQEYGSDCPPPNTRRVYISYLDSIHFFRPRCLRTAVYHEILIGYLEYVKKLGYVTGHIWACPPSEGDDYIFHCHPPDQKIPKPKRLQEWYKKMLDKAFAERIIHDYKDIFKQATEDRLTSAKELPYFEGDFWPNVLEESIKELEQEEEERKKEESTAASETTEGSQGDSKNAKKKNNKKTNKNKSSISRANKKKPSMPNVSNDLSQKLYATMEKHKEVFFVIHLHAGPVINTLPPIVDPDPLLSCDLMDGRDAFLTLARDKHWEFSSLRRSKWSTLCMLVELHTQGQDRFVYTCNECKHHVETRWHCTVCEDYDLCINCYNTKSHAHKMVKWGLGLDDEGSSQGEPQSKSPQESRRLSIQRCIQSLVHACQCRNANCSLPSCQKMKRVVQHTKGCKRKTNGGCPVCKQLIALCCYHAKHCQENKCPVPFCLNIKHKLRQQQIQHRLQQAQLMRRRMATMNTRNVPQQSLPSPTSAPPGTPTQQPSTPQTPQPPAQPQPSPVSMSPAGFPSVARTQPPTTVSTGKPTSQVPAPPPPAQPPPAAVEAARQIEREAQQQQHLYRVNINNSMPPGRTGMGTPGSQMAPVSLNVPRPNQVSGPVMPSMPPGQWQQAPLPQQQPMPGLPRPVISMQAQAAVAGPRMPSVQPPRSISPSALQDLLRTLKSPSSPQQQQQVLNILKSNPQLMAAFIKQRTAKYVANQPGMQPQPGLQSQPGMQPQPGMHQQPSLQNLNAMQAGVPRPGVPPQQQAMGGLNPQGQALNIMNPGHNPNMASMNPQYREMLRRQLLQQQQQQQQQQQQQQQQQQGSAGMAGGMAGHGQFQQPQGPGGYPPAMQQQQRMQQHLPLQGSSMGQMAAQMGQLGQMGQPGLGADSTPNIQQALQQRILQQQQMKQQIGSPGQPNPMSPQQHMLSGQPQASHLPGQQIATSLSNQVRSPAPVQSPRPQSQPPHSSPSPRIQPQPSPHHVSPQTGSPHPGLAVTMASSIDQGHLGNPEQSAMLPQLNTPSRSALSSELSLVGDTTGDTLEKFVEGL
Chain of Bromodomain-containing protein 2 (P25440 whole entry, the tested form may be a part, canonical isoform): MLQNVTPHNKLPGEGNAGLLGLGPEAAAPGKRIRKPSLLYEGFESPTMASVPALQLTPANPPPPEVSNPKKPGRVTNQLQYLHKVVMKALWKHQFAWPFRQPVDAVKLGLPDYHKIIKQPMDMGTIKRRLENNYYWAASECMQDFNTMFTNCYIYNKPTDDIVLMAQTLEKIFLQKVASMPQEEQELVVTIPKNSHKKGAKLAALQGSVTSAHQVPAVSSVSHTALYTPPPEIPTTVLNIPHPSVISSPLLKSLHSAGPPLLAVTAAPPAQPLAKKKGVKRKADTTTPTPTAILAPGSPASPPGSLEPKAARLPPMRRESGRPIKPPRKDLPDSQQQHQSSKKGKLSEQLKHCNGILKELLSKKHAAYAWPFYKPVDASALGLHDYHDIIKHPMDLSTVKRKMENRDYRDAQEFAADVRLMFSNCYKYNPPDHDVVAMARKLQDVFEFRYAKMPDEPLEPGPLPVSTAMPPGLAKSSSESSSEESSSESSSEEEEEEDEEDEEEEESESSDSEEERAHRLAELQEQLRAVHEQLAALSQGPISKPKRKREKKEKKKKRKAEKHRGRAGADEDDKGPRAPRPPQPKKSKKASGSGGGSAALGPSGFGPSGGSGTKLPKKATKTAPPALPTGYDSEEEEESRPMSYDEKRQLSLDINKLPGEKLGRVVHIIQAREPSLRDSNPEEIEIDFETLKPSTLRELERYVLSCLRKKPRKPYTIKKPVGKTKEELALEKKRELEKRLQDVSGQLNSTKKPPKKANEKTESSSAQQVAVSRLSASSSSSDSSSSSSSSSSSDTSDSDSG
Chain of D(2) dopamine receptor (Homo sapiens) (P14416 whole entry): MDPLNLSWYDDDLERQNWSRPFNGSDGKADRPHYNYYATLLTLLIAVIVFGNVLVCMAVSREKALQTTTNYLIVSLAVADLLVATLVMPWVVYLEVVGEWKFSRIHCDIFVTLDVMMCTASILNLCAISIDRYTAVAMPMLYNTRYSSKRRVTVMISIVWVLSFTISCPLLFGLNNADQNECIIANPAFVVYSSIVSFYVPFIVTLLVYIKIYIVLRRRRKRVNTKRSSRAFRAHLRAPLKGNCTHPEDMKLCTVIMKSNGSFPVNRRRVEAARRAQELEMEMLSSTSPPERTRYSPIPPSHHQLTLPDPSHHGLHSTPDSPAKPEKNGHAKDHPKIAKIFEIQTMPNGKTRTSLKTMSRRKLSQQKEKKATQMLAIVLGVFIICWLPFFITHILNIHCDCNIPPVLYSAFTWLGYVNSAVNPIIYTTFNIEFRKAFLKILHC

SMILES | IC50 (NCI-H2452) [µM] | IC50 (SK-BR-3) [µM] | Activity (Rattus norvegicus [1]) [%] | IC50 (SU-DHL-16) [µM] | IC50 (EB-3) [µM] | Activity (Rattus norvegicus [2]) [%] | IC50 (KNS-62) [µM] | IC50 (HCC1937) [µM] | IC50 [3] [µM] | IC50 (GA-10) [µM] | Activity [4] [%] | IC50 [5] [µM] | Activity [6] [%] | IC50 (HCC38) [µM] | IC50 (JIMT-1) [µM] | inhibition [7] [%] | Kd (CREB-binding protein) [µM] | Kd [9] [µM] | Kd [10] [µM] | Kd [13] [µM] | other results
C/C=C/Cn1cc(-c2ccc(C(=O)N3CCOCC3)cc2)c2cc[nH]c2c1=O | 20 | 20 | 0 | 10.3 | 20 | 13 | 20 | 20 | 20 | 10.8 | -3 | 14.8 | 1 | 20 | 20 | -2 | > 10 | 0.2 | > 10 | 4 | IC50 (Raji): 20 µM; inhibition [8]: 1.5%; IC50 (SW48): 20 µM; IC50 (SCC-3): 20 µM; IC50 (COLO 320): 20 µM; IC50 [11]: 20 µM; IC50 [12]: 20 µM; IC50 (NCI-H441): 20 µM; IC50 (DAN-G): 20 µM; IC50 (MC116): 10.2 µM; Activity (Homo sapiens): 13%
C/C=C/Cn1cc(-c2cc(OC)c(C(C)(C)O)cc2OC)c2cc(C)[nH]c2c1=O | – | – | – | – | – | – | – | – | – | – | – | – | – | – | – | – | > 10 | 0.52 | > 10 | > 10 | –
C/C=C/Cn1cc(-c2cc(OC)c(C(=O)N3CCOCC3)cc2OC)c2cc(C)[nH]c2c1=O | 2 | 2 | 2 | 2 | 2 | 86 | 2 | 2 | 2 | 2 | 13 | 2 | -1 | 2 | 2 | 2.5 | > 10 | 0.11 | > 10 | > 10 | IC50 (Raji): 2 µM; inhibition [8]: 8%; IC50 (SW48): 2 µM; IC50 (SCC-3): 2 µM; IC50 (COLO 320): 2 µM; IC50 [11]: 2 µM; IC50 [12]: 2 µM; IC50 (NCI-H441): 2 µM; IC50 (DAN-G): 2 µM; IC50 (MC116): 2 µM; Activity (Homo sapiens): 18%
C/C=C/Cn1cc(-c2ccc(C(C)(C)O)cc2OC)c2cc[nH]c2c1=O | 20 | 20 | -1 | 13.9 | 20 | -21 | 14.7 | 20 | 20 | 20 | 6 | 20 | 5 | 20 | 20 | 3.5 | 3.5 | 0.34 | > 10 | 2.7 | IC50 (Raji): 12.4 µM; inhibition [8]: 18%; IC50 (SW48): 20 µM; IC50 (SCC-3): 20 µM; IC50 (COLO 320): 20 µM; IC50 [11]: 20 µM; IC50 [12]: 20 µM; IC50 (NCI-H441): 20 µM; IC50 (DAN-G): 20 µM; IC50 (MC116): 4.97 µM; Activity (Homo sapiens): -5%
